Experimental data: patent US11479551B2, “MTA-cooperative PRMT5 inhibitors” (Mirati Therapeutics, Inc., priority 2019, dated 2022)
Read-outs that look alike come from different tables or passages of the source.

Target: PRMT5/MEP50 complex (Homo sapiens (Human), UniProt O14744)
Assay: PRMT5:MEP50 FlashPlate Assay (histone H4 peptide substrate, plus and minus MTA)
Format: biochemical
Description: The PRMT5 inhibitory activity of compounds of the present invention was determined using either a PRMT5:MEP50 FlashPlate Assay (Reaction Biology Corporation) or a PRMT5:MEP50 HotSpot Assay (Reaction Biology Corporation).
1. PRMT5:MEP50 FlashPlate Assay

[1] = IC50 + 2 μM MTA (nM), in the presence of 2 μM MTA
[2] = in the absence of MTA, read-out: IC50

Chain of PRMT5/MEP50 complex (O14744 2-637): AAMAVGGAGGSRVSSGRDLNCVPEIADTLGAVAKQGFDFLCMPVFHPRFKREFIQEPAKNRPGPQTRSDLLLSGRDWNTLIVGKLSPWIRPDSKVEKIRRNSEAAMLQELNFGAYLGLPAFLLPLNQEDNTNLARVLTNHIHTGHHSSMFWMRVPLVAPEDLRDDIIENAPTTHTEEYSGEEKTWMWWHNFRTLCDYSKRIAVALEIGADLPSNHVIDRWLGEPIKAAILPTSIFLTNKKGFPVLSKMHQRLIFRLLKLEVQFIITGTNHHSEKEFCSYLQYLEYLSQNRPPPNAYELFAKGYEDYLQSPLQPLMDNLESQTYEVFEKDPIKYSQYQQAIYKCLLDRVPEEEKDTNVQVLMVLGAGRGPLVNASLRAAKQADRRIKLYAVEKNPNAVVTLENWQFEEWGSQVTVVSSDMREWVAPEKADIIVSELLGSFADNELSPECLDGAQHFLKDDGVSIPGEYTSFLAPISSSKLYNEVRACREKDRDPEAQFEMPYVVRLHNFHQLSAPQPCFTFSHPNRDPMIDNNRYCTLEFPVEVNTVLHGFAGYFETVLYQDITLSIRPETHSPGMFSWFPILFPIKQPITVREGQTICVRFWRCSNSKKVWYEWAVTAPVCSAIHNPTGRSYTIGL
Chain of PRMT5/MEP50 complex (Q9BQA1 2-342 partner): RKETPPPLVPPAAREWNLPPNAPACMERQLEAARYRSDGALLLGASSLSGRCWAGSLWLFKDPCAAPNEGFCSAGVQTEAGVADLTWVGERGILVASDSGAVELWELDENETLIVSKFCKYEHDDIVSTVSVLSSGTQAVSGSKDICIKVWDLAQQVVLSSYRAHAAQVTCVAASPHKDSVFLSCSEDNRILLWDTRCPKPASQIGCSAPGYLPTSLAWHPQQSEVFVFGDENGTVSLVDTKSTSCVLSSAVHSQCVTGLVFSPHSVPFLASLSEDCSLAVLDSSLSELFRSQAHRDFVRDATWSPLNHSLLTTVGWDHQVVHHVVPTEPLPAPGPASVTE

SMILES	IC50 [1] [nM]	IC50 [2] [nM]
NCc1n[nH]c(=O)c2ccc(C3CCOC3)cc12 (racemic) [Example 5-2, (R,S)-4-(aminomethyl)-6-(THF-3-yl)phthalazin-1(2H)-one]	57000	> 100000
NCc1n[nH]c(=O)c2cc(-c3ccccn3)ccc12 [Example 1-4, 4-(aminomethyl)-7-(pyridin-2-yl)phthalazin-1(2H)-one]	39000	> 100000
NCc1n[nH]c(=O)c2ccc(-c3cccnc3)cc12 [Example 1-5, 4-(aminomethyl)-6-(pyridin-3-yl)phthalazin-1(2H)-one]	1400	34800
Cn1cc(-c2ccc3c(CN)n[nH]c(=O)c3c2)cn1 [Example 1-8, 4-(aminomethyl)-7-(1-methyl-1H-pyrazol-4-yl)phthalazin-1(2H)-one]	10000	> 100000
NCc1n[nH]c(=O)c2ccc(-c3cncs3)cc12 [Example 3-1, 4-(aminomethyl)-6-(thiazol-5-yl)phthalazin-1(2H)-one]	3700	89600
NCc1n[nH]c(=O)c2ccc(-c3ccnnc3)cc12 [Example 3-2, 4-(aminomethyl)-6-(pyridazin-4-yl)phthalazin-1(2H)-one]	42000	10000
CCc1ccc(-c2ccc3c(=O)[nH]nc(CN)c3c2)cn1 [Example 3-3, 4-(aminomethyl)-6-(6-ethylpyridin-3-yl)phthalazin-1(2H)-one]	25000	10000
Cc1cc(-c2ccc3c(=O)[nH]nc(CN)c3c2)cnc1C [Example 3-4, 4-(aminomethyl)-6-(5,6-dimethylpyridin-3-yl)phthalazin-1(2H)-one]	1400	38300
Cc1ccc(-c2ccc3c(=O)[nH]nc(CN)c3c2)cn1 [Example 3-5, 4-(aminomethyl)-6-(6-methylpyridin-3-yl)phthalazin-1(2H)-one]	7400	87900
NCc1n[nH]c(=O)c2ccc(-c3cnc4ccccc4c3)cc12 [Example 3-6, 4-(aminomethyl)-6-(quinolin-3-yl)phthalazin-1(2H)-one]	5100	47100
NCc1n[nH]c(=O)c2ccc(-c3ccc(C(F)(F)F)nc3)cc12 [Example 3-8, 4-(aminomethyl)-6-(6-(trifluoromethyl)pyridin-3-yl)phthalazin-1(2H)-one]	> 1e+06	> 1e+06
Cc1c(-c2ccc3c(=O)[nH]nc(CN)c3c2)cnn1C [Example 3-9, 4-(aminomethyl)-6-(1,5-dimethyl-1H-pyrazol-4-yl)phthalazin-1(2H)-one]	33	1230
Cc1cncc(-c2ccc3c(=O)[nH]nc(CN)c3c2)c1 [Example 3-10, 4-(aminomethyl)-6-(5-methylpyridin-3-yl)phthalazin-1(2H)-one]	100	3910
Cc1ncc(-c2ccc3c(=O)[nH]nc(CN)c3c2)cn1 [Example 3-11, 4-(aminomethyl)-6-(2-methylpyrimidin-5-yl)phthalazin-1(2H)-one]	5000	131000
NCc1n[nH]c(=O)c2ccc(-c3cnc(C(F)(F)F)nc3)cc12 [Example 3-12, 4-(aminomethyl)-6-(2-(trifluoromethyl)pyrimidin-5-yl)phthalazin-1(2H)-one]	210000	> 1e+06
CCc1cncc(-c2ccc3c(=O)[nH]nc(CN)c3c2)c1 [Example 3-13, 4-(aminomethyl)-6-(5-ethylpyridin-3-yl)phthalazin-1(2H)-one]	110	1420

SMILES	IC50 [1] [nM]	IC50 [2] [nM]
CC(C)c1cncc(-c2ccc3c(=O)[nH]nc(CN)c3c2)c1 [Example 3-14, 4-(aminomethyl)-6-(5-isopropylpyridin-3-yl)phthalazin-1(2H)-one]	17	413
CCn1cc(-c2ccc3c(=O)[nH]nc(CN)c3c2)cn1 [Example 3-15, 4-(aminomethyl)-6-(1-ethyl-1H-pyrazol-4-yl)phthalazin-1(2H)-one]	650	18700
NCc1n[nH]c(=O)c2ccc(-c3cnn4ccccc34)cc12 [Example 3-16, 4-(aminomethyl)-6-(pyrazolo[1,5-a]pyridin-3-yl)phthalazin-1(2H)-one]	13	186
CC(C)n1cc(-c2ccc3c(=O)[nH]nc(CN)c3c2)cn1 [Example 3-17, 4-(aminomethyl)-6-(1-isopropyl-1H-pyrazol-4-yl)phthalazin-1(2H)-one]	770	15100
Cc1ncccc1-c1ccc2c(=O)[nH]nc(CN)c2c1 [Example 3-18, 4-(aminomethyl)-6-(2-methylpyridin-3-yl)phthalazin-1(2H)-one]	33000	> 1e+06
Cc1ccncc1-c1ccc2c(=O)[nH]nc(CN)c2c1 [Example 3-19, 4-(aminomethyl)-6-(4-methylpyridin-3-yl)phthalazin-1(2H)-one]	180	6360
Cn1nc(C(F)(F)F)cc1-c1ccc2c(=O)[nH]nc(CN)c2c1 [Example 3-20, 4-(aminomethyl)-6-(1-methyl-3-(trifluoromethyl)-1H-pyrazol-5-yl)phthalazin-1(2H)-one]	53000	
Cc1cc(-c2ccc3c(=O)[nH]nc(CN)c3c2)[nH]n1 [Example 3-21, 4-(aminomethyl)-6-(5-methyl-1H-pyrazol-3-yl)phthalazin-1(2H)-one]	1800	39400
Cc1nn(C)cc1-c1ccc2c(=O)[nH]nc(CN)c2c1 [Example 3-22, 4-(aminomethyl)-6-(1,3-dimethyl-1H-pyrazol-4-yl)phthalazin-1(2H)-one]	35000	> 100000
CCCn1cc(-c2ccc3c(=O)[nH]nc(CN)c3c2)cn1 [Example 3-23, 4-(aminomethyl)-6-(1-propyl-1H-pyrazol-4-yl)phthalazin-1(2H)-one]	230	6430
Cc1nn(C)c(C)c1-c1ccc2c(=O)[nH]nc(CN)c2c1 [Example 3-24, 4-(aminomethyl)-6-(1,3,5-trimethyl-1H-pyrazol-4-yl)phthalazin-1(2H)-one]	20000	> 100000
Cn1cc(-c2ccc3c(=O)[nH]nc(CN)c3c2)c(C(F)(F)F)n1 [Example 3-25, 4-(aminomethyl)-6-(1-methyl-3-(trifluoromethyl)-1H-pyrazol-4-yl)phthalazin-1(2H)-one]	71000	> 100000
CC(C)CCn1cc(-c2ccc3c(=O)[nH]nc(CN)c3c2)cn1 [Example 3-26, 4-(aminomethyl)-6-(1-isopentyl-1H-pyrazol-4-yl)phthalazin-1(2H)-one]	1600	20600
CC(C)Cn1cc(-c2ccc3c(=O)[nH]nc(CN)c3c2)cn1 [Example 3-27, 4-(aminomethyl)-6-(1-isobutyl-1H-pyrazol-4-yl)phthalazin-1(2H)-one]	4200	59000
NCc1n[nH]c(=O)c2ccc(-c3cnco3)cc12 [Example 3-28, 4-(aminomethyl)-6-(oxazol-5-yl)phthalazin-1(2H)-one]	> 100000	> 100000
Cn1cc(-c2ccc3c(=O)[nH]nc(CN)c3c2)c2cccnc21 [Example 3-29, 4-(aminomethyl)-6-(1-methyl-1H-pyrrolo[2,3-b]pyridin-3-yl)phthalazin-1(2H)-one]	10000	
